The record followed here is PubChem BioAssay AID214 (DTP/NCI, 2004).

Several values for one entry are separate records, joined by “and”; a condition that tells them apart may be missing. Equal values may be shown once. Records with an inconclusive call do not appear.

The assay relates to B6C3F1 mice, colon carcinoma 38 s.c., T/C. The assay can be described thus: NCI In Vivo Anticancer Drug Screen. Data for tumor model Colon Carcinoma 38 (subcutaneous) in B6C3F1 mice. To be noted: endpoint: median tumor weight (est.), higher = larger tumour. As to the method: The antitumor activity of compounds was measured in mice bearing transplantable tumors. Survival or tumor size were measured and the results are expressed as the measurement made in the treated group (T) divided by the measurement made in the vehicle treated control group (C). The tumor model used in this assay is Colon Carcinoma 38 (subcutaneous) in B6C3F1 mice

Where [1] appears, read: dose: 50.0 mg/kg/injection, schedule: Q07DX002 (ip), vehicle: Klucel (hydroxypropylcellulose) (HPC).
Where [2] appears, read: dose: 100.0 mg/kg/injection, schedule: Q07DX002 (ip), vehicle: Klucel (hydroxypropylcellulose) (HPC).
Setting [3] is: dose: 200.0 mg/kg/injection, schedule: Q07DX002 (ip), vehicle: Klucel (hydroxypropylcellulose) (HPC).
Setting [4] is: dose: 400.0 mg/kg/injection, schedule: Q07DX002 (ip), vehicle: Klucel (hydroxypropylcellulose) (HPC).
Where [5] appears, read: dose: 50.0 mg/kg/injection, schedule: Q07DX002 (ip), vehicle: saline with Tween-80.
Where [6] appears, read: dose: 100.0 mg/kg/injection, schedule: Q07DX002 (ip), vehicle: saline with Tween-80.
Where [7] appears, read: dose: 200.0 mg/kg/injection, schedule: Q07DX002 (ip), vehicle: saline with Tween-80.
[8] abbreviates: dose: 25.0 mg/kg/injection, schedule: Q07DX002 (ip), vehicle: Klucel (hydroxypropylcellulose) (HPC).
Setting [9] is: dose: 25.0 mg/kg/injection, schedule: Q07DX002 (ip), vehicle: water.
The mark [10] stands for this setting: dose: 50.0 mg/kg/injection, schedule: Q07DX002 (ip), vehicle: water.

Turning to `N=c1ccn2c(n1)OC1C(O)C(CO)OC12` (stereo not drawn), the T/C is 90 % of control (dose: 100.0 mg/kg/injection, schedule: Q07DX003 (ip), vehicle: saline); 98 % of control (dose: 200.0 mg/kg/injection, schedule: Q07DX003 (ip), vehicle: saline); 92 % of control (dose: 400.0 mg/kg/injection, schedule: Q07DX003 (ip), vehicle: saline); 61 % of control (dose: 800.0 mg/kg/injection, schedule: Q07DX003 (ip), vehicle: saline); 40 % of control (dose: 1600.0 mg/kg/injection, schedule: Q07DX003 (ip), vehicle: saline).

As to `COc1nc(C(Cl)(Cl)Cl)c(Cl)c(OC)c1Cl`, the T/C runs as follows: under setting [1], 103 % of control; under setting [2], 109 % of control; under setting [3], 104 % of control; under setting [4], 47 % of control.

Take `COc1cc2c[n+](C)c3c(c2cc1OC)Cc1cc2c(cc1-3)OCO2`: the T/C reads like this: under setting [5], 94 % of control; under setting [6], 107 % of control; under setting [7], 97 % of control; (dose: 400.0 mg/kg/injection, schedule: Q07DX002 (ip), vehicle: saline with Tween-80) 85 % of control.

In the case of `C[C@@H]1CC[C@]2(C)CC[C@]3(C)C(=CC[C@@H]4[C@@]5(C)CC[C@@H](OC(=O)c6ccc(O)cc6)C(C)(C)[C@@H]5C[C@H](O)[C@]43C)[C@@H]2[C@H]1C(=O)O`, the T/C was 164 % of control (dose: 0.12 mg/kg/injection, schedule: Q07DX002 (ip), vehicle: saline with Tween-80); 49 % of control (dose: 0.5 mg/kg/injection, schedule: Q07DX002 (ip), vehicle: saline with Tween-80); 50 % of control (dose: 1.0 mg/kg/injection, schedule: Q07DX002 (ip), vehicle: saline with Tween-80); 50 % of control (dose: 2.0 mg/kg/injection, schedule: Q07DX002 (ip), vehicle: saline with Tween-80).

As for `CC1CC(C)CC(C)C(O)/C(C#N)=C/C=C/CC(C2CCCC2C(=O)O)OC(=O)CC(O)C(C)C1` (stereo not drawn), the T/C by setting is: (dose: 4.0 mg/kg/injection, schedule: Q07DX002 (ip), vehicle: Klucel (hydroxypropylcellulose) (HPC)) 83 % of control; (dose: 8.0 mg/kg/injection, schedule: Q07DX002 (ip), vehicle: Klucel (hydroxypropylcellulose) (HPC)) 81 % of control; (dose: 16.0 mg/kg/injection, schedule: Q07DX002 (ip), vehicle: Klucel (hydroxypropylcellulose) (HPC)) 108 % of control; (dose: 32.0 mg/kg/injection, schedule: Q07DX002 (ip), vehicle: Klucel (hydroxypropylcellulose) (HPC)) 115 % of control.

Take `O=[N+]([O-])c1ccc(N2CCOCC2)c2c1no[n+]2[O-]`: the T/C was 165 % of control under setting [5], 98 % of control under setting [6] and 103 % of control under setting [7].

Take `Oc1ccc(CCl)c2cccnc12`: the T/C by setting is: (dose: 25.0 mg/kg/injection, schedule: Q07DX002 (ip), vehicle: saline) 91 % of control; (dose: 50.0 mg/kg/injection, schedule: Q07DX002 (ip), vehicle: saline) 105 % of control; (dose: 100.0 mg/kg/injection, schedule: Q07DX002 (ip), vehicle: saline) 94 % of control; (dose: 200.0 mg/kg/injection, schedule: Q07DX002 (ip), vehicle: saline) 106 % of control.

Regarding `O=C(O)c1cc(Cc2ccc(O)c(C(=O)O)c2)ccc1O` (tested in a mixture with another compound), the T/C reads like this: under setting [8], 71 % of control; under setting [1], 78 % of control; under setting [2], 70 % of control; under setting [3], 115 % of control; under setting [4], 63 % of control.

As for `[Cl][Hg][Cl]`, the T/C (dose: 1.56 mg/kg/injection, schedule: Q07DX002 (ip), vehicle: saline) is 80 % of control and the T/C (dose: 3.12 mg/kg/injection, schedule: Q07DX002 (ip), vehicle: saline) is 124 % of control.

Regarding `C=C(Cl)C(=NC(C)(C)C)Nc1ccccc1C`, the T/C under setting [2] was 88 % of control.

With `CC1(C)OCC2OC=CC(=O)C2O1` (stereo not drawn), under setting [7], the T/C is 222 % of control.

Turning to `COc1ccc(S(=O)(=O)N=N/C=C2\C=CC=CN2O)cc1OC`, the T/C is 175 % of control under setting [5], 91 % of control under setting [6] and 166 % of control under setting [7].

With `CCCCCC(O)C1C(=O)OC(C)C(O)/C=C/C=C/C=C/C=C\C=C(\C)C(O)CC(O)CC(O)CC(O)CC(O)CC(O)CC1O` (stereo not drawn), the T/C (dose: 6.25 mg/kg/injection, schedule: Q07DX002 (ip), vehicle: water) is 81 % of control; the T/C (dose: 12.5 mg/kg/injection, schedule: Q07DX002 (ip), vehicle: water) was 103 % of control; the T/C under setting [9] is 77 % of control; the T/C under setting [10] was 69 % of control; the T/C (dose: 100.0 mg/kg/injection, schedule: Q07DX002 (ip), vehicle: water) was 62 % of control.

`COc1ccccc1CC(=O)O`: the T/C reads like this: (dose: 75.0 mg/kg/injection, schedule: Q07DX002 (ip), vehicle: saline with Tween-80) 78 % of control; (dose: 150.0 mg/kg/injection, schedule: Q07DX002 (ip), vehicle: saline with Tween-80) 107 % of control; (dose: 300.0 mg/kg/injection, schedule: Q07DX002 (ip), vehicle: saline with Tween-80) 98 % of control.

Consider `Cc1ccoc1`, for which the T/C is, setting by setting: (dose: 16.8 mg/kg/injection, schedule: Q03HX006 (ip), vehicle: saline with Tween-80) 75 % of control; (dose: 33.33 mg/kg/injection, schedule: Q03HX006 (ip), vehicle: saline with Tween-80) 109 % of control; (dose: 66.66 mg/kg/injection, schedule: Q03HX006 (ip), vehicle: saline with Tween-80) 114 % of control; (dose: 133.33 mg/kg/injection, schedule: Q03HX006 (ip), vehicle: saline with Tween-80) 108 % of control.

For the molecule `Cc1ccc(NCCN(C)C)c2c(=O)c3cc(O)ccc3sc12`, the T/C under setting [8] is 86 % of control; the T/C under setting [1] is 90 % of control and 210 % of control; the T/C under setting [2] is 67 % of control; the T/C under setting [4] was 48 % of control.

As for `C=C1COC(O)(C2OCOC(C3CC(=O)NC(=O)C3)C2O)C1C` (stereo not drawn), the T/C (dose: 31.25 micrograms/kg/injection, schedule: Q07DX002 (ip), vehicle: water) is 119 % of control.

`COc1ccc(OC)c(Cc2cnc3nc(N)nc(N)c3c2C)c1`: the T/C reads like this: under setting [9], 72 % of control; under setting [10], 104 % of control.

Take `CC1c2ccccc2CC(CCN(C)C)c2ccccc21` (stereo not drawn): the T/C (dose: 12.5 mg/kg/injection, schedule: Q07DX002 (ip), vehicle: saline with Tween-80) was 164 % of control; the T/C (dose: 25.0 mg/kg/injection, schedule: Q07DX002 (ip), vehicle: saline with Tween-80) is 84 % of control; the T/C under setting [5] is 108 % of control; the T/C under setting [7] was 69 % of control.
